This note sets out measurements from patent EP0699675A2, “3-(4-(1-Substituted-4-piperazinyl)butyl)-4-thiazolidinone and related compounds” (HOECHST-ROUSSEL PHARMACEUTICALS INCORPORATED, priority 1994, dated 1996).

Structures are written as SMILES. Where a name gives a salt, the structure may show the parent alone.

This assay relates to CK-1 male mice. Description: climbing mice assay (apomorphine-induced climbing), antipsychotic activity. Conditions: 30 minutes prior to apomorphine 1.5 mg/kg subcutaneously, climbing scores totaled over readings at 10, 20 and 30 minutes, control group set to 100%. Type of assay: in vivo. The method, then: Antipsychotic activity is determined in the climbing mice assay by methods similar to those described by P. Protais, et al., Psychopharmacol., 50, 1 (1976) and B. Costall, Eur. J. Pharmacol., 50, 39 (1978).
The subject CK-1 male mice (23-27 grams) are group-housed under standard laboratory conditions. The mice are individually placed in wire mesh stick cages (4" x 4" by 10") and are allowed one hour for adaptation and exploration of the new environment. Then apomorphine is injected subcutaneously at 1.5 mg/kg, a dose causing climbing in all subjects for 30 minutes. Compounds to be tested for antipsychotic activity are injected intraperitoneally 30 minutes prior to the apomorphine challenge at a screening dose of 10mg/kg.
For evaluation of climbing, 3 readings are taken at 10,20 and 30 minutes after apomorphine administration according to the following scale:
Mice consistently climbing before the injection of apomorphine are discarded.
With full-developed apomporphine climbing, the animals are hanging onto the cage walls, rather motionless, over longer periods of time. By contrast, climbs due to mere motor stimulation usually last only a few seconds.
The climbing scores are individually totaled (maximum score: 6 per mouse over 3 readings) and the total score of the control group (vehicle intraperitoneally-apomorphine subcutaneously) is set to 100%. ED₅₀ value with 95% confidence limits, calculated by a linear regression analysis of some of the compounds of this invention.

`CC1SC(C)(C)C(=O)N1CCCCN1CCC(c2csc3ccccc23)CC1.O=C(O)/C=C\C(=O)O` (stereo not drawn) [3-[4-[4-(Benzo[b]thien-3-yl)-1-piperidinyl]butyl]-2,5,5-trimethyl-4-thiazolidinone maleate]: the “Antipsychotic Activity Score” value (Dose 9.5 mg/kg ip) stood at 50%.
Consider `CC1SC(C)(C)C(=O)N1CCCCN1CCC(c2cc3ccccc3s2)CC1` (stereo not drawn) [3-[4-[4-[Benzo[b]thien-2yl)-1-piperidinyl[butyl]-2,5,5-trimethyl-4-thiazolidinone hydrochloride], for which the “Antipsychotic Activity Score” value (Dose 20 mg/kg ip) turned out to be 44%.
Take `CC1(C)C(=O)N(CCCCN2CCC(c3csc4ccccc34)CC2)CS1(=O)=O` [3-[4-[4-[Benzo[b]thien-3-yl)-1-piperidinyl]butyl]-5,5-dimethyl-1,1-dioxo-4-thiazolidinone]: the “Antipsychotic Activity Score” value (Dose 20 mg/kg ip) is recorded as 98%.
